Results: patent US20040146971A1, “Novel p53 inducible protein” (priority 2001, published 2004)
Starred links: 1 amine or outer side, 2 acyl side, 3 side chain; linkers in the order of their positions; H or OH if unused. Positions of bridges follow the written chain, without caps; N, C: chain ends. Non-standard residues stand in square brackets, D forms with d. Residues, ends and D or L forms follow the SMILES beside them. Chains are numbered I, II in the order given. Actinocin(9to1) = Cc1c2oc3c(C)ccc(C(=O)[*:1])c3nc-2c(C(=O)[*:2])c(N)c1=O; NMeV = CN[C@H](C(=O)O)C(C)C; Sar = CNCC(=O)O

Legend:
[1] = tested on: NIH3T3-derived Scotin antisense and control antisense fibroblasts; experiment: Cell survival by Giemsa staining, Scotin antisense versus control antisense fibroblasts; assay type: cell-based, mouse; settings: different doses
Experimental: Cell survival was determinated as described in the Experimental Procedures by trypan blue 24 h after irradiation. Histogram represents the compilation of 4 independent experiments. Standard Deviation is reported as error bars. b) Clonoge assay; Scotin antisense and control antisense expressing fibroblasts were treated at concentrations indicated with the DNA-damaging agent Doxorubicin (Dx) or with the activators of ER stress Thapsigargin (Tg) or Tunicamycin (Tu) or with an activator of mitochondrial stress, FCCP. After treatment, cells were fixed in methanol and stained by Giemsa.
Cells were treated with different doses of doxorubicin for 24 h and were allowed to recover for 24 h after treatment. Cell survival was estimated by giemsa staining.
(§1) The list of conditions known to trigger the ER stress response includes treatment of cells with thapsigargin, which interferes with calcium flux across the ER membrane, or tunicamycin, an inhibitor of N-linked glycosylation, or reducing agents, or deprivation of nutrients such as glucose, amino acids, or hypoxia. […] NIH3T3, p53−/−, Scotin antisense and control antisense expressing fibroblasts were treated with different doses of thapsigargin or tunicamycin or FCCP, a protonophore inducing mitochondrial stress. Cell survival was estimated by giemsa staining (FIG. 12.3).

p53−/− fibroblasts = experiment: Apoptosis of p53-/- fibroblasts after ER stress activators; assay type: cell-based, mouse
Experimental: as §1

NIH3T3 fibroblasts = experiment: TUNEL staining of drug-treated NIH3T3 fibroblasts; assay type: cell-based, mouse; settings: NIH3T3, 24 h; tunicamycin 1 μg/ml, thapsigargin 150 nM
Experimental: NIH3T3 fibroblasts were treated for 24 h with 1 μg/ml of tunicamycin, fixed by paraformaldehyde and stained by TUNEL. Cells in apoptosis are stained by TUNEL (eft hand images).
For TUNEL assay, cells (3×10^5) seeded on 2-well glass chamber slide, were transfected as described. Cells were fixed for 30 min at RT in 4% paraformaldehyde in PBS, washed in PBS and permeabilised 2 min at 4° C. in 0.1% Triton X-100, 0.1% sodium citrate. The TUNEL staining was performed accordingly to the manufacturer's protocol (In Situ Cell Death Detection kit, Roche Molecular Biochemicals). The apoptotic cells presenting fragmented DNA were then labelled in green after incorporation of fluorescein.

Scotin [2] = experiment: Western blot of Scotin protein induction in human fibroblasts and tumour cell lines; assay type: cell-based
Experimental: (§2) FIG. 7 is a western blot which illustrates that p53 is necessary and sufficient to induce Scotin protein expression. a) Only primary mouse embryonic fibroblasts (MEF) expressing WTp53 induce Scotin after UV irradiation or Actinomycin D treatment. MEF from p53−/− and p53+/+ littermate mice were exposed to UV-C light (20 J/m2) or Actinomycin D (60 ng/ml). Proteins were extracted at time indicated after treatment and analysed by Western blot by using affinity purified rabbit polyclonal anti-mouse-Scotin antibody. As a positive control, p53 and Waf induction were determined by using CM5 rabbit polyclonal anti-mouse p53 antibody and F5 mouse monoclonal anti-Waf antibody. […] Scotin expression was analysed by Western blot by using affinity purified rabbit polyclonal anti-human Scotin antibody. […]
(§3) Cells were washed and scraped in PBS buffer and centrifuged at 2000 rpm for 2 min. […] Protein concentration of the supernatant was determined by the Bradford assay. […]
(§4) In order to further characterise Scotin protein, it was essential to identify cell lines that could induce Scotin upon DNA damage. […] Proteins were extracted after treatment and levels analysed by Western blot Waf and p53 protein levels were used as an indication of p53 activation.

Scotin [3] = experiment: Western blot of Scotin protein induction in mouse embryonic fibroblasts; assay type: cell-based; settings: 60 ng/ml
Experimental: as §2, §3, §4

Compound	resistance of Scotin antisense cells compared with control antisense cells to cell death induced by the drug [1]	apoptosis induced by the drug in p53−/− fibroblasts (p53−/− fibroblasts)	further results
C/C=C(/C)C(=O)O[C@H]1C(C)=C2[C@H]([C@@H]1OC(=O)CCCCCCC)[C@@](C)(OC(C)=O)C[C@H](OC(=O)CCC)[C@@]1(O)[C@H]2OC(=O)[C@@]1(C)O [thapsigargin]	more resistant	resistant	–
N#CC(C#N)=NNc1ccc(OC(F)(F)F)cc1 [FCCP]	not	–	–
tunicamycin	more resistant	resistant	cell death by TUNEL (NIH3T3 fibroblasts): die by apoptosis
COc1cccc2c1C(=O)c1c(O)c3c(c(O)c1C2=O)C[C@@](O)(C(=O)CO)C[C@@H]3O[C@H]1C[C@H](N)[C@H](O)[C@H](C)O1 [doxorubicin]	more resistant	–	–
Cc1c2oc3c(C)ccc(C(=O)N[C@@H]4C(=O)N[C@H](C(C)C)C(=O)N5CCC[C@H]5C(=O)N(C)CC(=O)N(C)[C@@H](C(C)C)C(=O)O[C@@H]4C)c3nc-2c(C(=O)N[C@@H]2C(=O)N[C@H](C(C)C)C(=O)N3CCC[C@H]3C(=O)N(C)CC(=O)N(C)[C@@H](C(C)C)C(=O)O[C@@H]2C)c(N)c1=O [Actinomycin D] (I: T[dV]P[Sar][NMeV] / II: T[dV]P[Sar][NMeV]; ester I:1-I:C, II:1-II:C; linker I:N-II:N via Actinocin(9to1))	–	–	Scotin protein level (Scotin [2]; human primary fibroblast and tumour cells expressing wt p53, 60 ng/ml): clearly accumulated; Scotin protein level (Scotin [2]; human tumour cell lines devoid of p53 expression, 60 ng/ml): not; Scotin protein level (Scotin [3]; p53+/+ MEF): clearly accumulated; Scotin protein level (Scotin [3]; p53−/− MEF): not
